Assay results as given in US10603298B2, “Succinate dehydrogenase inhibitors (SDHi's)” (Medical Research Council, priority 2014, dated 2020).

Columns and labels:
[1] = administered orally; cited from earlier work
[2] = test system: adult primary rat cardiomyocytes; experiment: ROS production (DHE oxidation) in adult primary cardiomyocytes during in situ IR; assay type: cell-based; details: 40 min ischaemia then reoxygenation, 4 mM in ischaemic buffer
Method: FIG. 13: Tracking cardiomyocytes ROS levels in primary cardiomyocytes during in situ IR. Primary rat cardiomyocytes were subjected to 40 min ischaemia and reoxygenation with ROS levels tracked throughout the experiment by ratiometric measurement of dihydroethidium (DHE) oxidation. […] Representative traces of each condition are shown. The highlighted window indicates the period of the experiment expanded in detail in FIG. 3.a.
Male Sprague-Dawley rats (300-370 g) were terminally anaesthetised via IP injections of 200 mg/kg sodium pentobarbitone and 330 U/kg heparin. Hearts were excised and retrograde perfused on a Langendorff-perfusion system with 13 mL/min oxygenated KH buffer at 37° C. Cells were isolated by collagenase digestion using standard methods^41. […]
Cells were imaged within 36 hours of plating. […] Simulated ischaemia was achieved by replacing the buffer with a pre-gassed, hypoxic recording buffer simulating ischaemia (as above but lacking glucose and containing 10 mM sodium lactate, 14.8 mM KCl; pH 6.4) and by covering the heated stage with a transparent, gas-impermeant lid, forming a small chamber into which argon was forced to maintain hypoxia. pO2 was routinely measured as <2.0 mm Hg during simulated ischaemia. […]
ROS production was estimated by oxidation of DHE. […] All measured cell parameters were analysed with Fiji image processing software.

[3] = Malonate level in the ischaemic myocardium after i.v. dimethyl malonate (LC-MS); design: species or system mouse; details: intravenous infusion of dimethyl malonate in vivo
Method: In addition, as shown in FIG. 5a the cell permeability of the compound may be determined by comparing the level of the compound in an untreated cell with that of a treated cell. Typically, the level of the compound may be determined using LC/MS as detailed in the metabolomic analysis in the Examples.
Infarct size was assessed after 30 min of ischaemia followed by 120 min reperfusion using 2% triphenyltetrazolium chloride staining and is expressed as a percentage of the risk zone^33. […] Control mice were infused with sterile saline. The total volume administered never exceeded 200 μL/mouse.
Equal amounts wet weight murine tissue were lysed in 250 μL extraction solution (ES; 30% acetonitrile, 50% methanol and 20% water) per 10 mg tissue in Precellysis 24 vials, following the manufacturer's instructions. […] For the LC separation, column A was Sequant Zic-Hilic (150 mm×4.6 mm, internal diameter 3.5 μm) with a guard column (20 mm×2.1 mm 3.5 μm) from HiChrom, Reading, UK. […] Gradient: 0-3 min 80% B, 25 min 20% B, 26 min 80% B, 36 min 80% B. Column B was sequant Zic-pHilic (150 mm×2.1 mm i.d. 3.5 μm) with guard column (20 mm×2.1 mm i.d. […]) from HiChrom, Reading, UK. […] Spectra were analysed using both targeted and untargeted approaches. […] The arrays of spectra were then statistically analysed using the functions explore.data and univariate of the R package mum a^40.

COC(=O)CC(=O)OC [dimethyl malonate]
LD50 [1]: approximately 5 gms per kilogram
ROS production / DHE oxidation upon reperfusion [2]: reduced DHE oxidation upon reperfusion
accumulation of malonate in the ischaemic myocardium [3]: results in accumulation of malonate
